Data as given in article PMC8512844, “Olive Pomace Phenolic Compounds Stability and Safety Evaluation: From Raw Material to Future Ophthalmic Applications” (Molecules, 2021).

What was measured:
[1] = test system: human corneal epithelial (HCE) cells; test: In vitro genotoxicity, alkaline comet assay; type: cell-based; details: 24 h, 0.8 mg/mL CONV, 0.4 mg/mL OPT3, 300 μM OL, 100 μM HT, 5 μM + 50 μM OL+HT
Source text: (§1) According to the ICH guideline S2 (R1), comet assay evaluates the cell DNA damage under a neutral or alkaline electrophoretic field. This leads to the separation between intact and damaged cellular DNA, creating the typical “comet tail” visible from a microscope. By measuring this tail, the extent of the DNA damage can be estimated. In this study, we applied alkaline electrophoresis, because it is more sensitive and can detect smaller amounts of DNA damages, including single and double-stranded DNA breaks, alkali labile DNA adducts, and most oxidative DNA damage.
(§2) Two different human ocular surface cell lines were selected for this assay: HCE and the IM-ConjEpi. The two selected OP extracts (CONV and OPT3) were tested for their in vitro genotoxicity on both cell lines, together with the two principal pure olive compounds OL and HT, alone or in combination (OL+HT). For each compound or extract, the maximum allowable concentration was selected to be tested, based on the results of their in vitro cytotoxicity on the same cell lines, as previously described.
(§3) HCE is an immortalized human corneal epithelial cell line, kindly offered by Dr. Arto Urti (University of Helsinki, Finland). It was cultured in DMEM/F-12 + GlutaMax supplemented with 10% fetal bovine serum, 10 ng/mL human epithelial growth factor, 5 μg/mL human insulin and antibiotics (100 U/mL penicillin + 0.1 mg/mL streptomycin). IM-ConjEpi was supplied by Innoprot (Derio, Spain. Ref. P10870-IM) and is an SV40- Large T Antigen immortalized human conjunctival epithelial cell line. It was cultured in DMEM/F-12 + GlutaMax supplemented with 10% fetal bovine serum, 10 ng/mL human epithelial growth factor, 1 μg/mL bovine insulin and antibiotics ([…]). HCE cell line was used from passage 25 to 35, while IM-ConjEpi from passage 10 to 20.
(§4) The cells were incubated at 37 °C and 5:95 = CO2:air atmosphere ratio, while their medium was changed every second day. Observations through a phase-contrast microscope were carried out daily.
(§5) For the in vitro tests, HT, OL, CONV, and OPT3 were dissolved in culture medium (DMEM/F-12 + GlutaMax, without any supplement) the day of the experiment. As previously described, CONV was produced by conventional solid–liquid extraction using freeze-dried material without any further pretreatment. OPT3 was generated by PLE extraction using freeze-dried material previously defatted with scCO2. The part of the extracts not dissolved to the culture medium was filtered through a 0.20 μm polyvinylidene fluoride sterile filter. The in vitro concentrations were selected according to a previous study, which described the maximum allowable non-toxic concentration of HT, OL, CONV, and OPT3 on the two ocular surface cell lines used. […]

[2] = test system: immortalized human conjunctival epithelial (IM-ConjEpi) cells; test: In vitro genotoxicity, alkaline comet assay; type: cell-based; details: 24 h, 0.8 mg/mL CONV, 0.4 mg/mL OPT3, 300 μM OL, 100 μM HT, 5 μM + 50 μM OL+HT
Source text: as §1, §2, §3, §4, §5

[3] = Long-term storage stability of aqueous solutions (CPMP/ICH/2736/99), HPLC-DAD relative quantification; type: physicochemical; details: for stability as pure solution: first 30 days; for kobs (first-order degradation rate constant) / t1/2 (half-time period) / tlag (lag time): pure aqueous solution
Procedure: According to the guidance CPMP/ICH/2736/99, aqueous solutions of HT, OL, OPT3 extract, and CONV extract were stored at four different conditions of temperature (ambient, refrigerated, […], and intermediate) and humidity. The conditions were: T = 5 ± 3 °C (with no humidity), T = 25 ± 2 °C (with 60 ± 5% RH), T = 30 ± 2 °C (with 65 ± 5% RH) and T = 40 ± 2 °C (with 75 ± 5% RH) up to a final duration of 6 months. For OPT3, HT was relatively quantified as % with respect to the concentration (C0) at the initial time (t0), while for CONV both % HT and % OL content were calculated similarly. […] The stability of up to 6 months is presented in the Figure S1 of the Supplementary Material. […] The lag time (tlag) represents the time that the concentration of the compound remains constant and, if present, is determined as the intercept of the initial degradation time with the initial concentration value. The half-life period (t1/2) is calculated from Equation (2). The degradation constant (kobs), the t1/2, and the time lag (tlag) together with the correlation coefficient (R^2) for each compound and storage condition are presented in Table 5. ln(C0/Ct) = kobs(t - tlag)(1) t1/2 = ln(2)/k + tlag(2) The quantitative determination of HT, TY, and OL was performed by an HPLC-DAD system: Waters e2695 separation module with an autosampler (20 μL injection volume) and a quaternary pump, coupled with Waters 2998 photodiode array detector set at 280 nm (Waters®, Dublin, Ireland). A C18 Mediterranean Sea column (250 × 4.6 mm, 5 μm) (Teknokroma Analítica S.A., Barcelona, Spain) at 35 °C connected with an OptiGuard 1 mm guard column (Sigma-Aldrich, St. Louis, MO, USA) were used. The gradient method, together with the eluents and the elution program used, were selected according to […] et al.. Calibration curves for OL (range: 12.5-1250 mg/L, linearity: […] R^2 = 0.9969) were prepared, using standard solutions of the compounds in DMSO, and analyzed in the same conditions as the samples. Compounds in the extracts were identified by comparing the retention time and the UV spectra of the samples with those of the standard solutions, while MS spectra were also used to confirm identification (see 3.7.1. for experimental conditions). […] Samples and calibration curves of standard solutions were analyzed within the same day. For the 6-months storage stability, relative quantification was performed with respect to the initial quantity t0 of each analyte. For data acquisition and processing, Empower® 3 software (Waters®, Dublin, Ireland) was used. Briefly, all compounds and extracts were dissolved in Milli-Q water, as high mineralization could increase the degradation of these substances. Additionally, according to the bibliography, lower concentrations could accelerate the decomposition of a compound. […] All solutions were filtered through a 0.20 μm polyvinylidene fluoride filter. […] To fix the desired humidity for each temperature, appropriate salts have been used according to the bibliography. […] The vials were placed in big glass containers, together with a sufficient quantity of each salt. Then, they were closed airtight and left in different rooms of controlled temperature and protected from light for 6 months. […] For CONV, HT and OL content were measured, while for OPT3 only HT content was calculated due to the lack of OL in this extract. All samples were analyzed in triplicate and the results are expressed as mean of the percentage with respect to the initial concentration t0 ± SD.

| SMILES | Genotoxic effect (%TDNA) versus control group [1] | Genotoxic effect (%TDNA) versus control group [2] | kobs (first-order degradation rate constant) ([3]; T = 5 °C/no humidity) [day⁻¹] | t1/2 (half-time period) ([3]; T = 5 °C/no humidity) [days] | tlag (lag time) ([3]; T = 5 °C/no humidity) [days] | kobs (first-order degradation rate constant) ([3]; T = 25 °C/60% RH) [day⁻¹] | t1/2 (half-time period) ([3]; T = 25 °C/60% RH) [days] | tlag (lag time) ([3]; T = 25 °C/60% RH) [days] | kobs (first-order degradation rate constant) ([3]; T = 30 °C/65% RH) [day⁻¹] | t1/2 (half-time period) ([3]; T = 30 °C/65% RH) [days] | tlag (lag time) ([3]; T = 30 °C/65% RH) [days] | kobs (first-order degradation rate constant) ([3]; T = 40 °C/75% RH) [day⁻¹] | t1/2 (half-time period) ([3]; T = 40 °C/75% RH) [days] | tlag (lag time) ([3]; T = 40 °C/75% RH) [days] | also measured |
| --- | --- | --- | --- | --- | --- | --- | --- | --- | --- | --- | --- | --- | --- | --- | --- |
| C/C=C1/[C@H](O[C@@H]2O[C@H](CO)[C@@H](O)[C@H](O)[C@H]2O)OC=C(C(=O)OC)[C@H]1CC(=O)OCCc1ccc(O)c(O)c1 [OL, oleuropein] | No statistically significant differences | No statistically significant differences | 0.0099 | 81.3 | 11.3 | 0.0065 | 116.5 | 9.9 | 0.4022 | 1.7 | 0 | 0.3658 | 1.9 | 0 | stability as pure solution ([3]; 5 °C or 25 °C): remains at high levels; stability as standard solution ([3]; 25 °C or below): stable for up to 1 month; half-life at 113 mg/L ([3]; aqueous solution of the pure compound, pure solution, temperature above 30 °C, read-out: t1/2 (time to reduce the concentration to half of the initial value) (converted)): ~72 h; time the compound remains stable ([3]; pure solution, temperature values below 25 °C): approximately 11 days; final content compared to t0 ([3]; standard solution, 5 °C and 25 °C, 6 months): ca. 35%; stability as pure solution ([3]; temperature values above 30 °C): highly unstable |
| OCCc1ccc(O)c(O)c1 [HT, hydroxytyrosol] | No statistically significant differences | No statistically significant differences | 0.0069 | 101.5 | 1.0 | 0.0337 | 21.6 | 1.0 | 0.1068 | 6.5 | 0 | 0.1234 | 5.6 | 0 | stability as standard solution ([3]; 5 °C, first month): stable at a high percentage for the entire month; time from which the standard solution is completely degraded ([3]; 25 °C): fourth month; time from which the standard solution is completely degraded ([3]; 30 °C and 40 °C): third month |
